Measurements reported in patent US20260284062A1 (Konstantin Pavlovich GARYAEV, priority 2023, published 2026).

Experiments:
[1] = 0.5% Novocaine, 5.0-10.0 ml, in medicinal mixture administered into the recommended sites; cited from earlier work
[2] = tested on: myocardial infarction, ischemic stroke and peripheral thrombosis; settings: oral antiplatelet therapy with acetylsalicylic acid and clopidogrel; cited from earlier work
[3] = Patient history of statin treatment (tolerability); format: in vivo, human; settings: history of patient M. (Example 1)

Structure (SMILES) | reduction of the risk of myocardial infarction, ischemic stroke and peripheral thrombosis [2] | also measured
CCN(CC)CCOC(=O)c1ccc(N)cc1 [Novocaine] | – | undesirable effects [1]: reduction of arterial pressure up to collapse, dizziness, headache, arrhythmia
CC(=O)Oc1ccccc1C(=O)O [acetylsalicylic acid] | 20-25% | –
COC(=O)[C@H](c1ccccc1Cl)N1CCc2sccc2C1 [clopidogrel] | 20-25% | –
CCC(C)(C)C(=O)O[C@H]1C[C@@H](C)C=C2C=C[C@H](C)[C@H](CC[C@@H]3C[C@@H](O)CC(=O)O3)[C@H]21 [simvastatin] | – | tolerability of earlier treatment [3]: discontinued due to side effects
